Some test systems named below: NCI-H226 lung; HL-60(TB) leukemia; ACHN renal; TK-10 renal; CCRF-CEM leukemia; RPMI-8226 leukemia; LOX IMVI melanoma; COLO 205 colon; MCF7 breast; SK-OV-3 ovarian; MDA-N; EKVX NSCLC; 786-0 renal; SF-268 CNS; SK-MEL-28 melanoma; SF-539 CNS; HOP-62 NSCLC; PC-3 prostate; SK-MEL-2 melanoma; SNB-75 CNS.
Holding throughout (experiment): growth of human tumour cells (NCI), 48 h

Structures are written as SMILES.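 Dose response: 5 concentrations. Exposure: 48 h. Format: 96-well plates. Endpoint: linear interpolation; highest concentration if not reached. Definition used: TGI = concentration required for complete inhibition of growth.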

Results on eight compounds are retold here after PubChem BioAssay (NCI).

On to `O=C1c2ccccc2C(=O)N1NC1=NCCN1`, for which the TGI in the experiment on NCI-H226 lung, in the experiment on HL-60(TB) leukemia, with ACHN renal, with TK-10 renal, in the experiment with CCRF-CEM leukemia and in the experiment with RPMI-8226 leukemia was greater than 100 µM in each case. The TGI with LOX IMVI melanoma, with COLO 205 colon, in the experiment on MCF7 breast, in the experiment on SK-OV-3 ovarian, in the experiment on MDA-N and in the experiment with EKVX NSCLC was greater than 100 µM in each case. Further, the TGI with 786-0 renal, with SF-268 CNS, in the experiment with SK-MEL-28 melanoma, in the experiment on SF-539 CNS, in the experiment on HOP-62 NSCLC and in the experiment with PC-3 prostate was greater than 100 µM each time. In addition, the TGI in the experiment with SK-MEL-2 melanoma was greater than 100 µM.
For `O=C(CCCn1ccnc1[N+](=O)[O-])NCCn1cnc([N+](=O)[O-])n1`, the TGI in the experiment on NCI-H226 lung, in the experiment on HL-60(TB) leukemia, with SNB-75 CNS, with ACHN renal, in the experiment on TK-10 renal and in the experiment on CCRF-CEM leukemia was greater than 100 µM in each case. The TGI in the experiment on RPMI-8226 leukemia, in the experiment on LOX IMVI melanoma, in the experiment with COLO 205 colon, in the experiment with MCF7 breast, with SK-OV-3 ovarian and in the experiment on MDA-N was greater than 100 µM throughout. The TGI with 786-0 renal, in the experiment on SF-268 CNS, in the experiment on SK-MEL-28 melanoma, in the experiment on SF-539 CNS, in the experiment on HOP-62 NSCLC and in the experiment with PC-3 prostate was greater than 100 µM each time. Moreover, in the experiment with SK-MEL-2 melanoma, the TGI was greater than 100 µM.
As to `COCCCNc1c2ccccc2nc2ccccc12`, the TGI with HL-60(TB) leukemia worked out at 15.2 µM; with ACHN renal it was 2.39 µM; in the experiment with TK-10 renal, 89.8 µM; with CCRF-CEM leukemia it was 60.6 µM; in the experiment on LOX IMVI melanoma, 5.67 µM; in the experiment on COLO 205 colon it was 6.73 µM. The TGI is 5.27 µM in the experiment on MCF7 breast; 12.4 µM in the experiment on SK-OV-3 ovarian; 8.78 µM in the experiment on MDA-N; 27.3 µM in the experiment on EKVX NSCLC; 17.9 µM in the experiment with 786-0 renal; 16.8 µM with SF-268 CNS. For the same compound, the TGI turned out to be 6.54 µM in the experiment with SK-MEL-28 melanoma; 8.59 µM with SF-539 CNS; 12.2 µM in the experiment with HOP-62 NSCLC; 5.68 µM in the experiment on PC-3 prostate; 4.89 µM with SK-MEL-2 melanoma.
In the case of `C[C@@H]1CC[C@@]2(C)[C@H](C)/C(=C\COC(=O)/C=C/c3ccc(O)c(O)c3)CC[C@@]12C`, the TGI in the experiment with NCI-H226 lung amounted to 20.8 µM; in the experiment with HL-60(TB) leukemia, 13.4 µM; in the experiment with SNB-75 CNS, 28 µM; in the experiment with ACHN renal, 16.6 µM; with TK-10 renal it was 11.5 µM; in the experiment on RPMI-8226 leukemia, 10.2 µM. The TGI is 21.5 µM with LOX IMVI melanoma; 13.4 µM in the experiment on COLO 205 colon; 15.2 µM in the experiment on MCF7 breast; 26.4 µM in the experiment on SK-OV-3 ovarian; 14.3 µM with MDA-N; 30.8 µM with EKVX NSCLC. Also, the TGI was 17.6 µM in the experiment with 786-0 renal; 23.5 µM in the experiment with SF-268 CNS; 24.5 µM with SK-MEL-28 melanoma; 16.2 µM in the experiment with SF-539 CNS; 28.8 µM in the experiment with HOP-62 NSCLC; 17.4 µM with PC-3 prostate. The compound further yielded a TGI with SK-MEL-2 melanoma of 25.4 µM.
Take `CC(=O)Oc1cc(-c2oc3cc(OC(C)=O)c(C4OC(CO)C(O)C(O)C4O)c(OC(C)=O)c3c(=O)c2O)c(OC(C)=O)cc1O` (configuration not stated): the TGI in the experiment on NCI-H226 lung, in the experiment on HL-60(TB) leukemia, with SNB-75 CNS, with ACHN renal, in the experiment with TK-10 renal and with CCRF-CEM leukemia was greater than 100 µM each time. The TGI with RPMI-8226 leukemia, in the experiment with LOX IMVI melanoma, in the experiment with COLO 205 colon, with MCF7 breast, in the experiment with SK-OV-3 ovarian and with MDA-N was greater than 100 µM in each case. Moreover, the TGI with EKVX NSCLC, in the experiment on 786-0 renal, in the experiment on HOP-62 NSCLC, with PC-3 prostate and with SK-MEL-2 melanoma was greater than 100 µM in each case.
For the compound `COC(=O)c1c2c(cc3c1CC1(C3)Cc3cc4c(c(C(=O)OC)c3C1)CCC4)CCC2`, the TGI in the experiment on NCI-H226 lung, in the experiment with HL-60(TB) leukemia, with ACHN renal, in the experiment with TK-10 renal, with CCRF-CEM leukemia and in the experiment on RPMI-8226 leukemia was greater than 100 µM in each case. For the same compound, the TGI in the experiment on LOX IMVI melanoma, in the experiment with COLO 205 colon, with MCF7 breast, with SK-OV-3 ovarian, with MDA-N and in the experiment on EKVX NSCLC was greater than 100 µM in each case. Besides, the TGI with 786-0 renal, in the experiment on SF-539 CNS, in the experiment with HOP-62 NSCLC, with PC-3 prostate and in the experiment on SK-MEL-2 melanoma was greater than 100 µM throughout.
Take `O[C@@]12Cc3c([nH]c4ccccc34)[C@@H]3Oc4c(-c5ccccc5)ccc5c4[C@@]31CCN(CC1CC1)[C@@H]2C5`: the TGI in the experiment with HL-60(TB) leukemia was 4.48 µM; in the experiment with ACHN renal it was 2.75 µM; in the experiment on CCRF-CEM leukemia, 7.56 µM; with RPMI-8226 leukemia, greater than 100 µM; in the experiment on LOX IMVI melanoma it was 3.52 µM; in the experiment on COLO 205 colon it was 3.28 µM. For the same compound, the TGI was 3.22 µM in the experiment with MCF7 breast; 10.7 µM in the experiment on SK-OV-3 ovarian; 3.23 µM in the experiment on MDA-N; 4 µM with EKVX NSCLC; 3.04 µM in the experiment with 786-0 renal; 14.7 µM with SF-268 CNS. The TGI is 3.24 µM in the experiment on SK-MEL-28 melanoma, 3.06 µM with HOP-62 NSCLC, 3.76 µM with PC-3 prostate and 3.3 µM in the experiment with SK-MEL-2 melanoma.
Consider `COc1ccc(/C=C/C(=O)CCN2CCN(CCC(=O)/C=C/c3ccc(OC)cc3)CC2)cc1`, for which the TGI was 52.8 µM with NCI-H226 lung; greater than 100 µM in the experiment on HL-60(TB) leukemia; 58.6 µM in the experiment on SNB-75 CNS; 27.2 µM with ACHN renal; 28 µM with TK-10 renal; 11.1 µM in the experiment with LOX IMVI melanoma. In addition, the TGI in the experiment with COLO 205 colon was determined as 13.4 µM; in the experiment on MCF7 breast, 13.6 µM; in the experiment on SK-OV-3 ovarian it was 24.1 µM; with MDA-N, 10.5 µM; in the experiment with EKVX NSCLC, 28.2 µM; with 786-0 renal it was 10.9 µM. The TGI in the experiment on SF-268 CNS stood at 41.7 µM; in the experiment with SK-MEL-28 melanoma, 28.4 µM; in the experiment on SF-539 CNS it was 19.1 µM; with HOP-62 NSCLC it was 49.7 µM; in the experiment on PC-3 prostate, 25.5 µM; in the experiment with SK-MEL-2 melanoma, 42 µM.
